SMILES strings stand for the structures. Where two headings read alike, the source gives them in different places.

The values that follow come from patent US20130064768A1, “LIPOPHILIC CATIONIC PROBE FOR PET-IMAGING” (Medical Research Council, priority 2010, published 2013).

The nature of data set [1]: Tissue and blood distribution of [3H]TPP compounds after iv tail vein injection. How it is done:
A sample of the [^3H]compound solution injected was retained to calculate the specific activity, which was subsequently used to determine the tissue content of the compound. At the indicated times after injection, the mice were killed by cervical dislocation and a blood sample of ˜100-200 μL was obtained by cardiac puncture. The organs were then removed, cleared of blood, transferred to pre-chilled Eppendorf tubes on ice, weighed and stored at −80° C. until processing. The tissues taken were: heart, kidneys, liver, brain, skeletal muscle (gastrocnemius) and white adipose tissue (subcutaneous). […] The mice were monitored after injection to ensure no pathology or distress and all procedures were carried out under the approval of the University of Otago animal ethics committee.
Extraction of [^3H] Compounds from Tissues Tissues were thawed at room temperature and transferred to 50 mL Falcon tubes. Ice-cold methanol 4° C.; 1 mL/100 mg tissue wet weight) was added to the tissue and the tissue homogenised using an Ultraturrax homogeniser (2×30 s on ice).
The homogenate was transferred in 1 mL batches to 1.5 mL Eppendorf tubes and centrifuged (10,000×g for 8 min at 4° C.). The methanol extract was decanted into a 20 ml glass scintillation vial (Wheaton) and the methanol evaporated under a stream of N2. Further ice-cold methanol (1 mL/100 mg) was added to the tissue homogenate pellets, vortexed for 1 min, centrifuged as above and the methanol extract decanted to a fresh 20 mL glass scintillation vial and evaporated. This procedure was repeated 3 more times to give 5 extracts per tissue sample. […] The specific activity of the injected [^3H] compound was then used to calculate the tissue content uptake as mol compound/g wet weight tissue. The half lives of compounds in organs were determined from the first order rate constants for loss of [^3H] compound from the organs, measured as the slope of ln[TPP compound] against time for the first 5 h after iv injection.

Data set [2] deals with mitochondrial membrane potential. The data set is described as follows: Effect of the uncoupler DNP on organ uptake of [3H]FluoroUndecylTPP in vivo. The settings on record: DNP 200 or 300 μg/kg ip 15 min after probe, organs taken 15 min later; dose dependent. Also on record: species or system mice. How it is done:
(§1) After 15 min the mice were injected ip with DNP (200 or 300 μg/kg) or saline carrier and after a further 15 min later they were killed and the content of [^3H]FluoroUndecylTPP in the tissues determined. Data are means ± range for two mice per condition. B, IAM-TPP is shown being taken up in to mitochondria within a cell where it reacts with thiol proteins to form a thioether adduct that can then be detected by immunoblotting. C, Confocal image of IAM-TPP binding to mitochondria in cells. C2C12 cells were incubated with 1 μM IAM-TPP for 3 h±10 μM FCCP. The cells were then fixed and the location of the TPP moiety within the cells determined by labelling with antiserum against the TPP moiety, visualised by immunofluorescence confocal microscopy. […] The mitochondria (40 μg protein) were separated by SDS-PAGE and proteins that had been labelled with IAM-TPP were detected by immunoblotting using antiserum against the TPP moiety. […]
Therefore it is likely that once the alkylTPP compounds are accumulated within tissues they are predominantly localised within mitochondria, driven by the membrane potential. To see if this was the case in these experiments, it was next determined if the uptake of the alkylTPP compounds in vivo was decreased by lowering the mitochondrial membrane potential. […]

In a further data set the test system is C2C12 cells. As to the kind of experiment: IAM-TPP uptake into mitochondria within cells (immunocytochemistry, confocal microscopy). Conditions: 1 μM, 3 h, ±10 μM FCCP. It is filed as cell-based, mouse. How it is done: as §1
(§2) To assess uptake of IAM-TPP by mitochondria in vivo, mice were injected iv by the tail vein as above with 500 nmol IAM-TPP in 100 μL sterile PBS. One hour later the mice were killed by cervical dislocation and liver and heart mitochondria prepared by homogenisation followed by differential centrifugation and the protein content determined by the bicinchoninic acid assay using bovine serum albumin as a standard. […]

Data set [3] relates to liver and heart mitochondria. The data set is described as follows: IAM-TPP uptake by mitochondria in vivo (immunoblot with anti-TPP antiserum). Also on record: species or system mice. Conditions: 500 nmol iv, mitochondria isolated 1 h later. The procedure:
as §1, §2

The subject of data set [4] is mitochondrial protein thiols. The data set is described as follows: Incubation of IAM-TPP with isolated mitochondria. Conditions: data not shown.
Data set [5] is described as follows: Octan-1-ol/PBS partition coefficient. The settings on record: determined in this study.
The conditions of data set [6]: published values; cited from earlier work.
A short description of data set [7]: Monitoring of mice for toxicity after iv injection of TPP cations. The format is in vivo. Conditions: 100 nmol iv in mice.
Description: Female C57/BL6 mice (20-25 g) were maintained on a 12 h light/dark cycle with ad libitum access to standard lab chow and water. […] A sample of the [^3H]compound solution injected was retained to calculate the specific activity, which was subsequently used to determine the tissue content of the compound. At the indicated times after injection, the mice were killed by cervical dislocation and a blood sample of ˜100-200 μL was obtained by cardiac puncture. The organs were then removed, cleared of blood, transferred to pre-chilled Eppendorf tubes on ice, weighed and stored at −80° C. until processing. The tissues taken were: heart, kidneys, liver, brain, skeletal muscle (gastrocnemius) and white adipose tissue (subcutaneous). […] The mice were monitored after injection to ensure no pathology or distress and all procedures were carried out under the approval of the University of Otago animal ethics committee.
For data set [8] the following is noted: 24 h after iv injection, other studies; cited from earlier work.
Where [9] appears, read: mice, 100 nmol iv bolus, first 5 h after injection.

In the case of `CS(=O)(=O)[O-].FCCCCCCCCCCC[P+](c1ccccc1)(c1ccccc1)c1ccccc1` [FluoroUndecylTPP, 11-fluoroundecyltriphenylphosphonium mesylate], in data set [1] (setting [9]), the “half life for loss from the heart” value is reported as about 21 h, the “half life for loss from the kidneys” value is reported as about 3 h and the “half life for loss from the liver” value is reported as about 3 h. For the same compound, the “enhancement of organ/blood concentration ratio relative to TPMP” value in [1] (mice, iv) is recorded as “over a hundred-fold”. Besides, the “decrease of uptake into the organs by DNP” value in [2] is listed as “up to 40%”.
In the case of `CS(=O)(=O)[O-].O=C(CI)NCCCCC[P+](c1ccccc1)(c1ccccc1)c1ccccc1` [IAM-TPP], the localisation within cells entry in the data set on C2C12 cells is “uncoupler-sensitive localisation of IAM-TPP within mitochondria”. Further, in data set [3], the “labelling of mitochondrial proteins in vivo” value is “labelling of heart and liver mitochondrial proteins”. The “reaction with protein thiols of isolated mitochondria” value in data set [4] was “rapidly reacted with protein thiols”. In [5], this compound returned an Octanol/PBS partition coefficient of 19±1.
For the compound `CCCCCCCCCC[P+](c1ccccc1)(c1ccccc1)c1ccccc1` [DecylTPP], in data set [1] (mouse, in vivo, iv), the “half life for clearance from fat and muscle” value fell in the range of 7 to 12 h; the “half life for loss from the heart” value is recorded as about 15 h; the “half life for loss from the kidneys” value is recorded as about 3 h; the “half life for loss from the liver” value is listed as about 3 h. In data set [6], the Octanol/PBS partition coefficient is 5000.
On to `COC1=C(OC)C(=O)C(CCCCCCCCCC[P+](c2ccccc2)(c2ccccc2)c2ccccc2)=C(C)C1=O` [MitoQ], for which, in [1] (1 h after 100 nmol iv), the “uptake by muscle and adipose tissue” value was “lower uptake”; the “uptake by the brain” value is listed as “very little uptake”; the “uptake by the heart” value is given as “less extensive uptake”; the “uptake by the liver and kidneys” value is recorded as “extensive uptake”. Also, in [1] (1 h after iv injection), the “heart/blood ratio, in ratio (TPMP = 1)” value was found to be 11 and the “uptake into the heart, ratio (TPMP = 1)” value is given as 6. Besides, in [1] (5 h after iv injection), the “heart/blood ratio, in ratio (TPMP = 1)” value is on record as 26 and the “uptake into the heart, ratio (TPMP = 1)” value is 10. In data set [1] (setting [9]), the “half life for loss from the heart” value is recorded as about 15 h, the “half life for loss from the kidneys” value is about 4 h and the “half life for loss from the liver” value is about 2 h. The “time of maximum uptake into tissues” value in data set [1] (mice, 100 nmol iv, earliest time measurable) came out at 5 min. In addition, the “toxicity of the injected amount” value in [7] was “non-toxic”. For the same compound, the Octanol/PBS partition coefficient in [6] is 2760. Besides, in data set [8], the MitoQ eliminated is listed as about 80%.
For the compound `C[P+](c1ccccc1)(c1ccccc1)c1ccccc1` [TPMP], in data set [1] (setting [9]), the “half life for loss from the heart” value is about 2 h, the “half life for loss from the kidneys” value is on record as about 2 h and the “half life for loss from the liver” value is reported as about 3 h. The “half life for clearance from fat and muscle” value in [1] (mice, 100 nmol iv bolus, estimate only) was 1 to 2 h.
